# Measured values reported in ChEMBL document CHEMBL4431341, “Synthesis and anticancer activity of a hydroxytolan series” (Bioorg Med Chem Lett, 2016).
# Active and inactive are the calls of the source. No cut-off for these calls is given here.
# How the values were obtained:
# DU-145 [1] = assay: Potency index, ratio of CD50 for RES to CD50 for test compound against human DU145 cells after 48 hrs; format: functional
# [2] = Selectivity index, ratio of CD50 against human MHRF cells to CD50 for human MDAH 2774 cells after 48 hrs
# T-24 [3] = assay: Potency index, ratio of CD50 for RES to CD50 for test compound against human T24 cells after 48 hrs; format: functional
# [4] = Cytotoxicity against human MHRF cells after 24 hrs by MTT assay; format: cell-based; conditions: read-out: CD50
# [5] = Ratio of CD50 for test compound to CD50 for RES against human MHRF cells after 72 hrs; format: ADME, cell-based
# [6] = Selectivity index, ratio of CD50 against human MHRF cells to CD50 for human MDAH 2774 cells after 72 hrs
# DU-145 [7] = assay: Cytotoxicity against human DU145 cells after 48 hrs by MTT assay; format: functional; conditions: DU-145, 48 h, read-out: CD50 (the source's name)
# [8] = Selectivity index, ratio of CD50 against human MHRF cells to CD50 for human MDAH 2774 cells after 24 hrs
# T-24 [9] = assay: Potency index, ratio of CD50 for RES to CD50 for test compound against human T24 cells after 72 hrs; format: functional
# [10] = Ratio of CD50 for test compound to CD50 for RES against human MHRF cells after 48 hrs; format: ADME, cell-based
# DU-145 [11] = assay: Potency index, ratio of CD50 for RES to CD50 for test compound against human DU145 cells after 24 hrs; format: functional
# MDAH 2774 [12] = assay: Potency index, ratio of CD50 for RES to CD50 for test compound against human MDAH 2774 cells after 72 hrs; format: functional
# [13] = Ratio of CD50 for test compound to CD50 for RES against human MHRF cells after 24 hrs; format: ADME, cell-based
# MDAH 2774 [14] = assay: Cytotoxicity against human MDAH 2774 cells after 72 hrs by MTT assay; format: functional; conditions: MDAH 2774, 72 h, read-out: CD50 (the source's name)
# T-24 [15] = assay: Cytotoxicity against human T24 cells after 48 hrs by MTT assay; format: functional; conditions: T-24, 48 h, read-out: CD50 (the source's name)
# [16] = Selectivity index, ratio of CD50 against human MHRF cells to CD50 for human DU145 cells after 48 hrs
# MDAH 2774 [17] = assay: Cytotoxicity against human MDAH 2774 cells after 24 hrs by MTT assay; format: functional; conditions: MDAH 2774, 24 h, read-out: CD50 (the source's name)
# [18] = Cytotoxicity against human MHRF cells after 72 hrs by MTT assay; format: cell-based; conditions: read-out: CD50
# [19] = Cytotoxicity against human MHRF cells after 48 hrs by MTT assay; format: cell-based; conditions: read-out: CD50
# [20] = Selectivity index, ratio of CD50 against human MHRF cells to CD50 for human DU145 cells after 72 hrs
# T-24 [21] = assay: Cytotoxicity against human T24 cells after 24 hrs by MTT assay; format: functional; conditions: T-24, 24 h, read-out: CD50 (the source's name)
# T-24 [22] = assay: Cytotoxicity against human T24 cells after 72 hrs by MTT assay; format: functional; conditions: T-24, 72 h, read-out: CD50 (the source's name)
# MDAH 2774 [23] = assay: Potency index, ratio of CD50 for RES to CD50 for test compound against human MDAH 2774 cells after 48 hrs; format: functional
# DU-145 [24] = assay: Cytotoxicity against human DU145 cells after 72 hrs by MTT assay; format: functional; conditions: DU-145, 72 h, read-out: CD50 (the source's name)
# DU-145 [25] = assay: Potency index, ratio of CD50 for RES to CD50 for test compound against human DU145 cells after 72 hrs; format: functional
# [26] = Selectivity index, ratio of CD50 against human MHRF cells to CD50 for human T24 cells after 24 hrs
# T-24 [27] = assay: Potency index, ratio of CD50 for RES to CD50 for test compound against human T24 cells after 24 hrs; format: functional
# [28] = Selectivity index, ratio of CD50 against human MHRF cells to CD50 for human T24 cells after 72 hrs
# DU-145 [29] = assay: Cytotoxicity against human DU145 cells after 24 hrs by MTT assay; format: functional; conditions: DU-145, 24 h, read-out: CD50 (the source's name)
# MDAH 2774 [30] = assay: Potency index, ratio of CD50 for RES to CD50 for test compound against human MDAH 2774 cells after 24 hrs; format: functional
# [31] = Selectivity index, ratio of CD50 against human MHRF cells to CD50 for human T24 cells after 48 hrs
# [32] = Selectivity index, ratio of CD50 against human MHRF cells to CD50 for human DU145 cells after 24 hrs
# MDAH 2774 [33] = assay: Cytotoxicity against human MDAH 2774 cells after 48 hrs by MTT assay; format: functional; conditions: MDAH 2774, 48 h, read-out: CD50 (the source's name)
# DU-145 [34] = assay: Pro-oxidative activity in human DU145 cells assessed as increase in H2O2 mediated DCF formation at 25 to 100 uM preincubated with DCFH-DA for 30 mins followed by compound treatment for 3 hrs by fluorescence analysis; format: functional, cell-based
# DU-145 [35] = assay: Cytotoxicity against human DU145 cells assessed as inhibition of cell viability at 2 to 500 uM after 24 hrs in presence of CAT by MTT assay; format: functional, cell-based
# DU-145 [36] = assay: Cytotoxicity against human DU145 cells assessed as inhibition of cell viability at 2 to 500 uM after 24 hrs by MTT assay; format: functional, cell-based
# [37] = Lipophilicity, log P of the compound; format: physicochemical; conditions: octanol/water
SMILES,Ratio (DU-145 [1]),Selectivity Index [2],Ratio (T-24 [3]),CC50 at 24 h [4] [µM],Ratio [5],Selectivity Index [6],CC50 (DU-145 [7]) [µM],Selectivity Index [8],Ratio (T-24 [9]),selectivity ratio at 48 h [10],CC50 (MDAH 2774 [14]) [µM],CC50 (T-24 [15]) [µM],CC50 (MDAH 2774 [17]) [µM],CC50 at 72 h [18] [µM],CC50 at 48 h [19] [µM],CC50 (T-24 [21]) [µM],CC50 (T-24 [22]) [µM],CC50 (DU-145 [24]) [µM],CC50 (DU-145 [29]) [µM],CC50 (MDAH 2774 [33]) [µM],also measured
Oc1cc(O)cc(C#Cc2cc(O)cc(O)c2)c1,1.8,5.2,2.3,156,0.5,4,31.6,5,1.1,0.5,16.8,27.3,31.4,66.9,113,44.7,20.1,17,57,21.5,Ratio (DU-145 [11]): 1.6; Ratio (MDAH 2774 [12]): 0.9; selectivity ratio at 24 h [13]: 1; Selectivity Index [16]: 3.6; Selectivity Index [20]: 4; Ratio (MDAH 2774 [23]): 0.7; Ratio (DU-145 [25]): 5; Selectivity Index [26]: 3.5; Ratio (T-24 [27]): 4.7; Selectivity Index [28]: 3.3; Ratio (MDAH 2774 [30]): 1.7; Selectivity Index [31]: 4.1; Selectivity Index [32]: 2.7
Oc1ccc(/C=C/c2cc(O)cc(O)c2)cc1 [RESVERATROL],–,–,–,155,–,–,58.2,–,–,–,14.6,61.8,36.9,32,50.9,210,22.7,27.9,92.2,23,Activity (DU-145 [34]): inactive; inhibition (DU-145 [35]): inactive; inhibition (DU-145 [36]): inactive; logP [37]: 1.85
Oc1ccc(C#Cc2cc(O)cc(O)c2)cc1,1.6,7.5,1.5,295,0.2,8.6,37.4,5.5,1,0.3,20.4,41.1,54.1,175,198,92.2,24.3,20.3,55.7,26.4,Ratio (DU-145 [11]): 1.7; Ratio (MDAH 2774 [12]): 0.7; selectivity ratio at 24 h [13]: 0.5; Selectivity Index [16]: 5.3; Selectivity Index [20]: 8.6; Ratio (MDAH 2774 [23]): 0.9; Ratio (DU-145 [25]): 1.4; logP [37]: 1.85; Selectivity Index [26]: 3.2; Ratio (T-24 [27]): 2.3; Selectivity Index [28]: 7.2; Ratio (MDAH 2774 [30]): 0.7; Selectivity Index [31]: 4.8; Selectivity Index [32]: 5.3
Oc1ccc(C#Cc2ccc(O)cc2)cc1,4.6,18.5,2,299,0.2,49.3,12.6,13.9,2.7,0.3,3.1,31.1,21.5,153,194,82.6,8.5,5.6,46.7,10.5,Activity (DU-145 [34]): Active; Ratio (DU-145 [11]): 2; Ratio (MDAH 2774 [12]): 4.7; selectivity ratio at 24 h [13]: 0.5; Selectivity Index [16]: 15.4; inhibition (DU-145 [35]): inactive; Selectivity Index [20]: 27.3; Ratio (MDAH 2774 [23]): 2.2; inhibition (DU-145 [36]): Active; Ratio (DU-145 [25]): 5; logP [37]: 2.3; Selectivity Index [26]: 3.6; Ratio (T-24 [27]): 2.5; Selectivity Index [28]: 18; Ratio (MDAH 2774 [30]): 1.7; Selectivity Index [31]: 6.2; Selectivity Index [32]: 6.4
